Test results from US12180193B2, “Accelerating fibrosarcoma protein degrading compounds and associated methods of use” (Arvinas Operations, Inc., priority 2020, dated 2024).
Like-named read-outs stand apart in the source and are kept apart here.

Assays:
[1] = target: T1, BRAF V600E (Homo sapiens, UniProt P15056, V600E); test: Cellular assay of target protein degradation, T-Rex 293 cells stably transfected with HA-BRAF_V600E (HA immunofluorescence, high content imaging); format: cell-based
T1 construct: expressed in transfected cells
Outline: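 24 h compound exposure, 1 μM–0.1 nM final, 0.1% DMSO, 37 °C; cells induced with 1 ng/mL doxycycline. PFA fix, Triton permeabilize, anti-HA overnight 4 °C, Hoechst/phalloidin counterstain. Output: DC50, Dmax as % control.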

[2] = target: T2, BRAF G466V (Homo sapiens, UniProt P15056, G466V); test: Cellular assay of target protein degradation, T-Rex 293 cells stably transfected with HA-BRAF G466V (HA immunofluorescence, high content imaging); format: cell-based
T2 construct: expressed in transfected cells
Outline: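 24 h compound, 30 nM–3 pM final, 0.1% DMSO, 37° C; HA-BRAF G466V induced with 0.75 ng/mL doxycycline. PFA fix, Triton perm, anti-HA + Alexa fluor secondary, Hoechst/phalloidin counterstain; imaging. DC50, Dmax (% of control).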

[3] = maximum degradation observed, T-Rex 293 HA-BRAF V600E
[4] = maximum degradation observed, T-Rex 293 HA-BRAF G466V
[5] = half maximal degradation, T-Rex 293 HA-BRAF V600E; read-out: BRaf V600E DC50
[6] = half maximal degradation, T-Rex 293 HA-BRAF G466V; read-out: BRaf G466V DC50

T2 sequence (P15056 whole entry G466V): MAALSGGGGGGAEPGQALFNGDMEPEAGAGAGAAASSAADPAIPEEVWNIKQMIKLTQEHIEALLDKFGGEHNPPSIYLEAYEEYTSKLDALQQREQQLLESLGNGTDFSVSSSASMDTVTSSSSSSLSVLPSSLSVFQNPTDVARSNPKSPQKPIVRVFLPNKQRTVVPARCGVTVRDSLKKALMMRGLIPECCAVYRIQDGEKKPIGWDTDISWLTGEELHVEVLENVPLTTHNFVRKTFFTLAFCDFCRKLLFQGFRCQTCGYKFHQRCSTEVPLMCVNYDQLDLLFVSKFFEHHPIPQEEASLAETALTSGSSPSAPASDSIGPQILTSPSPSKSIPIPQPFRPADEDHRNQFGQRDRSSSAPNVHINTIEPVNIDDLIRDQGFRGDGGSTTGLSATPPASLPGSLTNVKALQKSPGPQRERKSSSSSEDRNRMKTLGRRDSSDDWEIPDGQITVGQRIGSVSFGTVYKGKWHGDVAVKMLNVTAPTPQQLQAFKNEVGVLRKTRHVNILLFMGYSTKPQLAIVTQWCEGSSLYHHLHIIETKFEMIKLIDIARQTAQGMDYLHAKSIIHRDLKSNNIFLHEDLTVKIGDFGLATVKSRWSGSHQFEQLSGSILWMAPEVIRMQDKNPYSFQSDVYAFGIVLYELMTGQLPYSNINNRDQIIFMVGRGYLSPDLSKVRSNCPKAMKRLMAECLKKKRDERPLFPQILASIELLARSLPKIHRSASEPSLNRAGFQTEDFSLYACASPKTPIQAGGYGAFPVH
T1 sequence (P15056 whole entry V600E): as the sequence (P15056 whole entry G466V) above, with V466G, V600E counted along it

Row | SMILES | Dmax [1, 3] [%] | Dmax [2, 4] [%] | DC50 [1, 5] [nM] | DC50 [2, 6] [nM] | DC50 ([1]; read-out: BRaf V600E DC50; half maximal degradation, T-Rex 293 HA-BRAF V600E) [nM] | DC50 ([2]; read-out: BRaf G466V DC50; half maximal degradation, T-Rex 293 HA-BRAF G466V) [nM]
1 | O=C1CCC(N2Cc3cc(N4CCC(CC5CCN(c6ccc(-c7cnc8[nH]cc(C(=O)c9c(F)ccc(NS(=O)(=O)N%10CC[C@@H](F)C%10)c9F)c8c7)cc6)CC5)CC4)ccc3C2=O)C(=O)N1 (stereo partly drawn) [Compound 181, (3R)-N-[3-(5-{4-[4-({1-[2-(2,6-dioxopiperidin-3-yl)-1-oxo-2,3-dihydro-1H-isoindol-5-yl]piperidin-4-yl}methyl)piperidin-1-yl]phenyl}-1H-pyrrolo[2,3-b]pyridine-3-carbonyl)-2,4-difluorophenyl]-3-fluoropyrrolidine-1-sulfonamide] | < 35 | 35 to 70 |  |  | 50 to 500 | 10 to 30
2 | CN(CCN1CCN(c2ccc3c(c2)CN(C2CCC(=O)NC2=O)C3=O)CC1)[C@H]1C[C@@H](Oc2ccc(-c3cnc4[nH]cc(C(=O)c5c(F)ccc(NS(=O)(=O)N6CC[C@@H](F)C6)c5F)c4c3)cc2)C1 (stereo partly drawn) [Compound 182, (3R)-N-[2,4-difluoro-3-(5-{4-[(1s,3s)-3-[(2-{4-[2-(2,6-dioxopiperidin-3-yl)-1-oxo-2,3-dihydro-1H-isoindol-5-yl]piperazin-1-yl}ethyl)(methyl)amino]cyclobutoxy)phe-nyl}-1H-pyrrolo[2,3-b]pyridine-3-carbonyl)phenyl]-3-fluoropyrrolidine-1-sulfonamide] | 35 to 70 | > 70 | 50 to 500 | 1 to 10 |  | 
3 | COc1cc(C2CCN(CC3CCN(c4ccc(-c5cnc6[nH]cc(C(=O)c7c(F)ccc(NS(=O)(=O)N8CC[C@@H](F)C8)c7F)c6c5)cc4)CC3)CC2)ccc1C(=O)NC1CCC(=O)NC1=O (stereo partly drawn) [Compound 184, 4-(1-{[1-(4-{3-[2,6-difluoro-3-({[(3R)-3-fluoropyrrolidin-1-yl]sulfonyl}amino)benzoyl]-1H-pyrrolo[2,3-b]pyridin-5-yl}phenyl)piperidin-4-yl]methyl}piperidin-4-yl)-N-(2,6-dioxopiperidin-3-yl)-2-methoxybenzamide] | < 35 | 35 to 70 | 5 to 50 | 1 to 10 |  | 
4 | O=C1CCC(N2Cc3ccc(C4CCN(CC5CCN(c6ccc(-c7cnc8[nH]cc(C(=O)c9c(F)ccc(NS(=O)(=O)N%10CC[C@@H](F)C%10)c9F)c8c7)cc6)CC5)CC4)cc3C2=O)C(=O)N1 (stereo partly drawn) [Compound 185, (3R)-N-[3-(5-{4-[4-({4-[2-(2,6-dioxopiperidin-3-yl)-3-oxo-2,3-dihydro-1H-isoindol-5-yl]piperidin-1-yl}methyl)piperidin-1-yl]phenyl}-1H-pyrrolo[2,3-b]pyridine-3-carbonyl)-2,4-difluorophenyl]-3-fluoropyrrolidine-1-sulfonamide] | < 35 | > 70 | 5 to 50 | 1 to 10 |  | 

Further lines, with some results ahead:

Row | Dmax [1, 3] [%] | Dmax [2, 4] [%] | DC50 [1, 5] [nM] | DC50 [2, 6] [nM] | SMILES | DC50 ([1]; read-out: BRaf V600E DC50; half maximal degradation, T-Rex 293 HA-BRAF V600E) [nM] | DC50 ([2]; read-out: BRaf G466V DC50; half maximal degradation, T-Rex 293 HA-BRAF G466V) [nM]
5 | < 35 |  | 50 to 500 | > 30 | CC1(N2Cc3cc(C4CCN(CC5CCN(c6ccc(-c7cnc8[nH]cc(C(=O)c9c(F)ccc(NS(=O)(=O)N%10CC[C@@H](F)C%10)c9F)c8c7)cc6)CC5)CC4)ccc3C2=O)CCC(=O)NC1=O (stereo partly drawn) [Compound 183, (3R)-N-[2,4-difluoro-3-(5-{4-[4-({4-[2-(3-methyl-2,6-dioxopiperidin-3-yl)-1-oxo-2,3-dihydro-1H-isoindol-5-yl]piperidin-1-yl}methyl)piperidin-1-yl]phenyl}-1H-pyrrolo[2,3-b]pyridine-3-carbonyl)phenyl]-3-fluoropyrrolidine-1-sulfonamide] |  | 
6 | 35 to 70 | > 70 | 50 to 500 | 1 to 10 | COc1cc([C@H](O)CCN2CCN(c3ccc(-c4cnc5[nH]cc(C(=O)c6c(F)ccc(NS(=O)(=O)N7CC[C@@H](F)C7)c6F)c5c4)cc3)CC2)cc2c1C(=O)N([C@H]1CCC(=O)NC1=O)C2 [Compound 186, (3R)-N-{3-[5-(4-{4-[(3R)-3-{2-[(3S)-2,6-dioxopiperidin-3-yl]-7-methoxy-1-oxo-2,3-dihydro-1H-isoindol-5-yl}-3-hydroxypropyl]piperazin-1-yl}phenyl)-1H-pyrrolo[2,3-b]pyridine-3-carbonyl]-2,4-difluorophenyl}-3-fluoropyrrolidine-1-sulfonamide] |  | 
